Measurements: patent US9414579B2, “Systems and methods for controlling pest infestation of a woody plant” (Dow AgroSciences LLC, priority 2013, dated 2016)

What was measured:
Coptotermes spp. [1] = assay: Example I: field test on a 100 hectare oil palm plot, Quadrants A-D, infested trees inspected monthly for 24 months; type: in vivo; conditions: liquid fipronil 2.5 ml/5 L drenching
Procedure: Testing was performed to determine the effect in the field of an extruded composite member in the form of Recruit® HD, further details of which are provided in U.S. patent application Ser. No. 12/004,655, on Coptotermes spp. More particularly, a 100 hectare plot of oil palm trees was divided into four quadrants: Quadrants A, B, C and D. The palm oil trees in each of Quadrants A-D were investigated for the presence of termite activity or infestation, and the affected trees were marked accordingly. The affected trees in Quadrants A and C were each treated with liquid fipronil (2.5 ml/5 L drenching), and the affected trees in Quadrants B and D were each treated with a 50 g extruded composite member in the form of Recruit® HD (0.5% hexaflumuron) in a manner similar to that described above in connection with system 60. For Quadrants B and D, consumption of the extruded composite members was investigated and recorded accordingly. Post-treatment inspection of the affected trees was performed on a monthly basis for 24 months following initiation of treatment.
The results of the treatments in Quadrants A-D on a monthly basis over a 24 month period of time following initial treatment are graphically illustrated in FIG. 6.

Coptotermes spp. [2] = assay: Example II: field test on a 60 hectare oil palm plot divided into two plots, infested trees inspected monthly for 24 months; type: in vivo; conditions: for Infested Trees: plot 1 (4461 trees) liquid fipronil 2.0 ml/5 L drenching, plot 2 (4432 trees) 50 g Recruit HD per affected tree; for % Infestation: cumulative results, plot 1 fipronil, plot 2 Recruit HD
Procedure: Testing was performed to determine the effect in the field of an extruded composite member in the form of Recruit® HD, further details of which are provided in U.S. patent application Ser. No. 12/004,655, on Coptotermes spp. More particularly, a 60 hectare plot of oil palm trees was divided into two plots. The palm oil trees in each of the plots were investigated for the presence of termite activity or infestation, and the affected trees were marked accordingly. The affected trees in plot 1 were each treated with liquid fipronil (2.0 ml/5 L drenching), and the affected trees in plot 2 were each treated with a 50 g extruded composite member in the form of Recruit® HD (0.5% hexaflumuron) in a manner similar to that described above in connection with system 60. For plots 1 and 2, consumption of the extruded composite members was investigated and recorded accordingly. Post-treatment inspection of the affected trees was performed on a monthly basis for 24 months following initiation of treatment.

SMILES: N#Cc1nn(-c2c(Cl)cc(C(F)(F)F)cc2Cl)c(N)c1[S+]([O-])C(F)(F)F (stereo not drawn) [Fipronil, fipronil]
- Infested Trees (Coptotermes spp. [1]; Quadrant A (2246 trees), 0 months (before treatment)): 29
- Infested Trees (Coptotermes spp. [1]; Quadrant A (2246 trees), 7 months): 30
- Infested Trees (Coptotermes spp. [1]; Quadrant A (2246 trees), 12 months): 29
- Infested Trees (Coptotermes spp. [1]; Quadrant A (2246 trees), 18 months): 20
- Infested Trees (Coptotermes spp. [1]; Quadrant A (2246 trees), 24 months): 13
- Infested Trees (Coptotermes spp. [1]; Quadrant C (2215 trees), 0 months (before treatment)): 71
- Infested Trees (Coptotermes spp. [1]; Quadrant C (2215 trees), 7 months): 45
- Infested Trees (Coptotermes spp. [1]; Quadrant C (2215 trees), 12 months): 51
- Infested Trees (Coptotermes spp. [1]; Quadrant C (2215 trees), 18 months): 40
- Infested Trees (Coptotermes spp. [1]; Quadrant C (2215 trees), 24 months): 22
- Infested Trees (Coptotermes spp. [2]; 0 months (before treatment)): 100
- % Infestation (Coptotermes spp. [2]; 1 year): 2.31%
- % Infestation (Coptotermes spp. [2]; 2 year): 1.76%
- Infested Trees (Coptotermes spp. [2]; 7 months): 75
- Infested Trees (Coptotermes spp. [2]; 12 months): 80
- Infested Trees (Coptotermes spp. [2]; 18 months): 60
- Infested Trees (Coptotermes spp. [2]; 24 months): 35
- % Infestation (Coptotermes spp. [2]; Pre-Treatment): 2.24%
